Measured values: patent publication US9757354B2 (priority 2015, dated 2017)
Converted amounts (≈) assume the structure as drawn. Read-outs that look alike come from different tables or passages of the source.

Tests used:
[1] = physchem; settings: 20 °C
[2] = tested on: cyanide toxicity; settings: mouse, in vivo; cited from earlier work
[3] = tested on: cyanide toxicity; settings: in vivo; cited from earlier work
[4] = rabbit, in vivo

Work on `O=C(O)C1(O)CSC(O)(C(=O)O)CS1` (stereo not shown) [Compound 2, 2,5-dihydroxy-1,4-dithiane-2,5-dicarboxylic acid] yielded a solubility [1] of 200 mM (≈ 48.1 mg/mL).

For `O.O.O.O.O=C(O)C1(O)CSC(O)(C(=O)O)CS1.[Na].[Na]` (stereo not shown) [Compound 3a, disodium 2,5-dihydroxy-1,4-dithiane-2,5-dicarboxylic acid tetrahydrate], the rescue [2] is given as “highly effective” and the rescue [3] is given as “highly effective”.

Molecule `O=C([O-])C1(O)CSC(O)(C(=O)[O-])CS1.[Li+].[Li+]` (stereo not shown) [Compound 3b, Dilithium 2,5-Dihydroxy-1,4-dithiane-2,5-dicarboxylate] has a solubility [1] of 1050 mM.

In the case of `O=C([O-])C1(O)CSC(O)(C(=O)[O-])CS1.[K+].[K+]` (stereo not shown) [Compound 3c, Dipotassium 2,5-Dihydroxy-1,4-dithiane-2,5-dicarboxylate], the solubility [1] was 570 mM.

For `NCCCC[C@H](N)C(=O)O.NCCCC[C@H](N)C(=O)O.O=C(O)C1(O)CSC(O)(C(=O)O)CS1` (stereo not shown) [lysine salt], the “absorption of the antidote” value [4] was “poor absorption” and the tolerability of injection [4] was “poorly tolerated”.
